Source: the supplement of paper PMC10307832

Columns and labels:
Assay in all cases: relative viability (nuclei count vs DMSO), 5 days (fraction); higher = more cells survive
Decitabine + Dasatinib = compound: Nc1ncn([C@H]2C[C@H](O)[C@@H](CO)O2)c(=O)n1 [Decitabine] + Cc1nc(Nc2ncc(C(=O)Nc3c(C)cccc3Cl)s2)cc(N2CCN(CCO)CC2)n1 [Dasatinib] (partner 0.075 µM)
Summary of the method: (§1)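 Nuclei were stained with Hoechst during a one-step fixation (final 0.05% Triton X-100, 1% formaldehyde, 1 ug/ml Hoechst) carried out 5 days after dosing, then counted on 4× images. The cells, lung cancer lines in 1536-well plates, had been dosed by pin tool the day after seeding with one drug alone or a fixed anchor-drug dose plus five library-drug doses (not always all listed) in √10 steps. Relative viability is the nuclei count in treated wells divided by that in vehicle wells, and each value is the median of duplicate plates.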

Decitabine + Palbociclib = compound: Nc1ncn([C@H]2C[C@H](O)[C@@H](CO)O2)c(=O)n1 [Decitabine] + CC(=O)c1c(C)c2cnc(Nc3ccc(N4CCNCC4)cn3)nc2n(C2CCCC2)c1=O [Palbociclib] (partner 0.5 µM)
Summary of the method: as §1

Cediranib + AZD7762 = compound: COc1cc2c(Oc3ccc4[nH]c(C)cc4c3F)ncnc2cc1OCCCN1CCCC1 [Cediranib] + NC(=O)Nc1cc(-c2cccc(F)c2)sc1C(=O)N[C@H]1CCCNC1 [AZD7762] (partner 0.2 µM)
Summary of the method: as §1

Cediranib + Bortezomib = compound: COc1cc2c(Oc3ccc4[nH]c(C)cc4c3F)ncnc2cc1OCCCN1CCCC1 [Cediranib] + CC(C)C[C@H](NC(=O)[C@H](Cc1ccccc1)NC(=O)c1cnccn1)B(O)O [Bortezomib] (partner 0.002 µM)
Summary of the method: as §1

| Cell Line | relative viability (Decitabine + Dasatinib; first compound 0.04 µM) | relative viability (Decitabine + Dasatinib; first compound 0.1265 µM) | relative viability (Decitabine + Dasatinib; first compound 0.4 µM) | relative viability (Decitabine + Dasatinib; first compound 1.265 µM) | relative viability (Decitabine + Dasatinib; first compound 4 µM) | relative viability (Decitabine + Palbociclib; first compound 0.04 µM) | relative viability (Decitabine + Palbociclib; first compound 0.1265 µM) | relative viability (Decitabine + Palbociclib; first compound 0.4 µM) | relative viability (Decitabine + Palbociclib; first compound 1.265 µM) | relative viability (Decitabine + Palbociclib; first compound 4 µM) | relative viability (Cediranib + AZD7762; first compound 0.04 µM) | relative viability (Cediranib + AZD7762; first compound 0.1265 µM) | relative viability (Cediranib + AZD7762; first compound 0.4 µM) | relative viability (Cediranib + AZD7762; first compound 1.265 µM) | relative viability (Cediranib + AZD7762; first compound 4 µM) | relative viability (Cediranib + Bortezomib; first compound 0.04 µM) | relative viability (Cediranib + Bortezomib; first compound 0.4 µM) | relative viability (Cediranib + Bortezomib; first compound 1.265 µM) | relative viability (Cediranib + Bortezomib; first compound 4 µM) | relative viability (Cediranib + Bortezomib; first compound 0.1265 µM) |
| --- | --- | --- | --- | --- | --- | --- | --- | --- | --- | --- | --- | --- | --- | --- | --- | --- | --- | --- | --- | --- |
| LK-2 | 0.406 | 0.445 | 0.227 | 0.266 | 0.301 | 0.655 | 0.66 | 0.327 | 0.236 | 0.238 | 0.463 | 0.275 | 0.327 | 0.284 | 0.319 | – | – | – | – | – |
| NCI-H358 | 0.255 | 0.203 | 0.216 | 0.137 | 0.153 | 0.179 | 0.118 | 0.114 | 0.13 | 0.135 | 0.613 | 0.496 | 0.478 | 0.596 | 0.502 | – | – | – | – | – |
| NCI-H520 | 0.263 | 0.242 | 0.217 | 0.239 | 0.19 | 0.22 | 0.23 | 0.204 | 0.17 | 0.184 | – | – | – | – | – | 0.734 | 0.687 | 0.462 | 0.622 | – |
| NCI-H522 | 1.02 | 0.748 | 0.607 | 0.632 | 0.678 | 0.97 | 0.803 | 0.817 | 0.634 | 0.533 | 0.84 | 0.643 | 0.887 | 0.729 | 0.744 | – | – | – | – | – |
| NCI-H596 | 0.59 | 0.585 | – | 0.508 | 0.435 | – | – | – | – | – | 1.21 | 1.31 | 0.853 | 0.969 | 1.2 | 1.05 | 0.831 | 1 | 1.09 | 1.01 |
| NCI-H661 | 0.679 | 0.629 | 0.475 | 0.305 | 0.347 | 0.489 | 0.468 | 0.417 | 0.348 | 0.361 | – | – | – | – | – | 0.907 | 0.793 | 0.805 | 1.16 | 1.11 |
| NCI-H1299 | – | – | – | – | – | – | – | – | – | – | – | – | – | – | – | 1.06 | 1.03 | 1.03 | 1.04 | 1.06 |
| NCI-H1395 | 0.409 | 0.416 | 0.428 | 0.413 | 0.417 | 0.583 | 0.606 | 0.6 | 0.55 | 0.523 | 0.382 | 0.404 | 0.378 | 0.402 | 0.392 | – | – | – | – | – |
| NCI-H1563 | 0.447 | 0.462 | 0.584 | 0.485 | 0.499 | – | – | – | – | – | – | – | – | – | – | 0.912 | 0.885 | 0.796 | 0.889 | 0.794 |
| NCI-H1623 | 0.464 | 0.494 | 0.461 | 0.467 | 0.514 | – | – | – | – | – | – | – | – | – | – | – | – | – | – | – |
| NCI-H1648 | – | – | – | – | – | 0.275 | 0.246 | 0.296 | 0.287 | 0.31 | 0.586 | 0.533 | 0.636 | 0.514 | 0.72 | – | – | – | – | – |
| NCI-H1650 | 0.328 | 0.314 | 0.247 | 0.26 | 0.248 | 0.262 | 0.353 | 0.248 | 0.255 | 0.293 | – | – | – | – | – | 0.201 | 0.205 | 0.223 | 0.194 | 0.169 |
| NCI-H1703 | – | – | – | – | – | – | – | – | – | – | 0.116 | – | 0.135 | 0.122 | 0.123 | 0.309 | 0.192 | 0.181 | 0.206 | 0.294 |
